Results reported in patent US11866405B2, “Substituted indazoles as IRAK4 inhibitors” (AstraZeneca AB, priority 2020, dated 2024).
pIC50: −log10 of the molar value.

Assays:
[1] = target: human recombinant IRAK4 protein (Homo sapiens (Human), UniProt Q9NWZ3); test: IRAK4 enzyme assay (mass spectrometry readout); format: biochemical; details: 3 mM ATP, 0.2 nM enzyme; geometric mean of at least n=2, * single experiment
Protocol: Potency of IRAK4 Inhibitor Compounds in IRAK4 Enzyme Assay
The inhibitory activity of compounds against IRAK4 were determined in an enzymatic assay using mass spectrometry readout. Ten point half-log compound concentration response curves, with a top concentration of 1 μM or 10 μM, were generated from 10 mM stocks of compound solubilized in DMSO using an Echo 655 (Labcyte Inc) and added to 384 well assay plates (Greiner #781280). To the assay plates, 10 μL of human recombinant IRAK4 protein (Life Technologies #PV4002) diluted to a final concentration of 0.2 nM in assay buffer (50 mM Tris-HCl pH 7.4, 10 mM MgCl, 5 mM glutathione, 0.01% BSA, 3 mM ATP) was added. The enzyme was incubated with the compounds at room temperature for 15 minutes before a peptide substrate ([…], Innovagen custom synthesis, 10 mM in DMSO) was added to each well to a final concentration of 10 μM using an Echo 655 (Labcyte Inc). After two hours at room temperature, the reaction was stopped with 90 μL of 0.4% formic acid (Merck #33015). The unphosphorylated and phosphorylated peptide were measured by LC-MS/MS on a Waters TQ-S mass spectrometer. Peaks were integrated using the TargetLynx software and the ratios between phosphorylated and unphosphorylated peptides were calculated. Curves were fitted and compound potencies determined in Genedata Screener 15 (Genedata AG). Data presented are the geometric mean of at least n=2, or as denoted by an * are obtained from a single experiment.

[2] = target: IRAK4 auto-phosphorylation (Homo sapiens (Human), UniProt Q9NWZ3); test: IRAK4 phosphorylation cell assay in IL-1β-stimulated Karpas-299 cells; format: cell-based; details: IL-1β 22.7 ng/mL, pIRAK4 (Thr345/Ser346), geometric mean of at least 2 experiments
Protocol: IRAK4 Phosphorylation Cell Assay
The activation of IRAK4 by TLR or IL-1R ligands leads to IRAK4 auto-phosphorylation, which can be prevented by IRAK4 kinase inhibitors. The effect of IRAK4 inhibitor compounds on IRAK4 auto-phosphorylation was assessed in IL-1β-stimulated Karpas-299 cells as a measurement of cellular potency. Karpas-299 cells were cultured in RPMI 1640 (Gibco 61870-010) containing 10% FBS (Gibco #10270). Cells were plated at 2×10^4 cells per well in poly-D-lysine coated 384 well plates (Corning #356663) to which compounds had been added at various concentrations (10 point half log dose response with a final top concentration of 30 μM) using an Echo 655 (Labcyte Inc). Cells were centrifuged (250 g, 4 mins), incubated at 37° C. for 1 h, then stimulated with 22.7 ng/mL recombinant IL-1β (R&D Systems, #201-LB-025) at 37° C. for 10 mins, followed by fixation in 4% paraformaldehyde for 10 mins and permeabilization in ice-cold 70% MeOH for 30 mins. Cells were washed twice with phosphate-buffered saline (PBS) on a BlueWasher (BlueCatBio) then blocked with PBS containing 10% FBS for 20 mins. Blocking solution was removed with a BlueWasher and cells were stained with anti-pIRAK4 (Thr345/Ser346) (CST, #11927, 1:400) in blocking buffer with 0.05% Tween-20 for 1 h, then washed twice with PBS containing 0.05% Tween-20 on a BlueWasher, followed by staining with a Alexa 647-conjugated secondary anti-rabbit IgG antibody (CST, #4414, 1:2,000) and Hoechst 33342 (Sigma, 1:2,000) in blocking buffer with 0.05% Tween-20 for 30 mins. Finally, the cells were washed twice with PBS containing 0.05% Tween-20 and imaged on an ImageXpress Micro (Molecular Devices) with a 10× air objective using the appropriate filters. Images were analysed in Columbus (PerkinElmer) and the fluorescence intensity per cell from the secondary antibody was quantified. The quantified data were analysed in Genedata Screener 15 (Genedata AG). […] IC50 values are the geometric mean of at least 2 experiments.

Chain of IRAK4 auto-phosphorylation (Q9NWZ3 whole entry): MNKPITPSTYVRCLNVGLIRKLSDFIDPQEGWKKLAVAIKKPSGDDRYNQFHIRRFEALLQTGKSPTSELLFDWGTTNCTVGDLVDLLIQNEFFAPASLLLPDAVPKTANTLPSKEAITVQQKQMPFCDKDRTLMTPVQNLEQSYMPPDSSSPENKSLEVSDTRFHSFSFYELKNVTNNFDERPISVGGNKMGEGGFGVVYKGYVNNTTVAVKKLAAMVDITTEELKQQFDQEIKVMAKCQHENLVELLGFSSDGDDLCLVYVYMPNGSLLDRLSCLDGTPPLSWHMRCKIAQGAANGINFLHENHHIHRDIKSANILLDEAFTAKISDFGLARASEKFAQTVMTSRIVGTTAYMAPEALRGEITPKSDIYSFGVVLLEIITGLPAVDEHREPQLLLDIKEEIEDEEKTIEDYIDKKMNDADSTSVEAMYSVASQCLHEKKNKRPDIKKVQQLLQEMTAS
Chain of human recombinant IRAK4 protein (Q9NWZ3 whole entry): as above

| SMILES | pIC50 [1] | pIC50 [2] |
| --- | --- | --- |
| COc1cc2nn([C@@H]3CC[C@H](O)[C@@H](C)C3)cc2cc1C(=O)Nc1cnc2cccnn12 (single isomer, unassigned) [Example 83] | 8.68 | 7.47 |
| COc1cc2nn([C@H]3CCC[C@@H](O)[C@H]3C)cc2cc1C(=O)Nc1cnc2cccnn12 (single isomer, unassigned) [Example 104] | 8.96 | 7.60 |
| COc1cc2nn([C@H]3CCC[C@@H](O)[C@H]3C)cc2cc1C(=O)Nc1cnc2cccnn12 (single isomer, unassigned) [Example 105] | 8.19 | 7.02 |
| COc1cc2nn([C@H]3CCC[C@@H](O)[C@@H]3C)cc2cc1C(=O)Nc1cnc2cccnn12 (single isomer, unassigned) [Example 108] | 9.40 | 7.80 |
| COc1cc2nn([C@H]3CCC[C@@H](O)[C@@H]3C)cc2cc1C(=O)Nc1cnc2cccnn12 (single isomer, unassigned) [Example 109] | 9.22 | 7.82 |
| COc1cc2nn(C3CCC4(CC3)COCC(=O)N4C)cc2cc1C(=O)Nc1cnn2cccnc12 (single isomer, unassigned) [Example 118, 6-Methoxy-2-(1-methyl-2-oxo-4-oxa-1-azaspiro[5.5]undecan-9-yl)-N-(pyrazolo[1,5-a]pyrimidin-3-yl)-2H-indazole-5-carboxamide] | 7.86 | 6.70 |
| COc1cc2nn(C3CCC4(CC3)COCC(=O)N4C)cc2cc1C(=O)Nc1cnn2cccnc12 (single isomer, unassigned) [Example 119, 6-Methoxy-2-(1-methyl-2-oxo-4-oxa-1-azaspiro[5.5]undecan-9-yl)-N-(pyrazolo[1,5-a]pyrimidin-3-yl)-2H-indazole-5-carboxamide] | 9.30 | 7.80 |
| COc1cc2nn([C@H]3CC[C@@]4(CCC(=O)N4C)CC3)cc2cc1C(=O)Nc1cnc2cccnn12 [Example 1, N-(Imidazo[1,2-b]pyridazin-3-yl)-6-methoxy-2-((5r,8r)-1-methyl-2-oxo-1-azaspiro[4.5]decan-8-yl)-2H-indazole-5-carboxamide] | 10.00 | 8.30 |
| COc1cc2nn([C@H]3CC[C@]4(CCC(=O)N4C)CC3)cc2cc1C(=O)Nc1cnc2cccnn12 [Example 2, N-(Imidazo[1,2-b]pyridazin-3-yl)-6-methoxy-2-((5s,8s)-1-methyl-2-oxo-1-azaspiro[4.5]decan-8-yl)-2H-indazole-5-carboxamide] | 8.47 | 6.91 |
| COc1cc2nn([C@H]3CC[C@@H](C(=O)N(C)C)CC3)cc2cc1C(=O)Nc1cnc2cccnn12 [Example 3, 2-((1s,4s)-4-(Dimethylcarbamoyl)cyclohexyl)-N-(imidazo[1,2-b]pyridazin-3-yl)-6-methoxy-2H-indazole-5-carboxamide] | 8.07 | 6.57 |
| COc1cc2nn([C@H]3CC[C@H](C(=O)N(C)C)CC3)cc2cc1C(=O)Nc1cnc2cccnn12 [Example 4, 2-((1r,4r)-4-(Dimethylcarbamoyl)cyclohexyl)-N-(imidazo[1,2-b]pyridazin-3-yl)-6-methoxy-2H-indazole-5-carboxamide] | > 9.52 | 7.77 |
| COc1cc2nn([C@H]3CC[C@@H](N(C)C(C)=O)CC3)cc2cc1C(=O)Nc1cnc2cccnn12 [Example 22, N-(Imidazo[1,2-b]pyridazin-3-yl)-6-methoxy-2-((1s,4s)-4-(N-methylacetamido)cyclohexyl)-2H-indazole-5-carboxamide] | 8.29 | 6.57 |
| COc1cc2nn([C@H]3CC[C@@H](N(C)C(C)=O)CC3)cc2cc1C(=O)Nc1cnn2cnccc12 [Example 24, 6-Methoxy-2-((1s,4s)-4-(N-methylacetamido)cyclohexyl)-N-(pyrazolo[1,5-c]pyrimidin-3-yl)-2H-indazole-5-carboxamide] | 7.08 | 6.18 |
| COc1cc2nn([C@H]3CC[C@@H](NC(=O)C4CC4)CC3)cc2cc1C(=O)Nc1cnn2cnccc12 [Example 27, 2-((1s,4s)-4-(Cyclopropanecarboxamido)cyclohexyl)-6-methoxy-N-(pyrazolo[1,5-c]pyrimidin-3-yl)-2H-indazole-5-carboxamide] | 8.36 | 7.17 |
| O=C(Nc1cnn2cccnc12)c1cc2cn([C@H]3CC[C@@H](O)CC3)nc2cc1OC1CC1 [Example 56] | 8.92 | 7.10 |
| COc1cc2nn([C@H]3CC[C@H](N(C)C(=O)[C@@H](C)O)CC3)cc2cc1C(=O)Nc1cnn2cccnc12 [Example 58] | 9.05 | 7.80 |
| COc1cc2nn([C@H]3CC[C@H](N(C)C(=O)[C@H](C)O)CC3)cc2cc1C(=O)Nc1cnn2cccnc12 [Example 59, 2-((1S,4r)-4-((S)-2-Hydroxy-N-methylpropanamido)cyclohexyl)-6-methoxy-N-(pyrazolo[1,5-a]pyrimidin-3-yl)-2H-indazole-5-carboxamide] | 8.89 | 7.40 |
| O=C(Nc1cnc2cccnn12)c1cc2cn([C@H]3CC[C@H](O)CC3)nc2cc1OC1CC1 [Example 84, 6-Cyclopropoxy-2-((1r,4r)-4-hydroxycyclohexyl)-N-(imidazo[1,2-b]pyridazin-3-yl)-2H-indazole-5-carboxamide] | 9.40 | 7.40 |
| O=C(Nc1cnc2cccnn12)c1cc2cn([C@H]3CC[C@@H](O)CC3)nc2cc1OC1CC1 [Example 85, 6-Cyclopropoxy-2-((1s,4s)-4-hydroxycyclohexyl)-N-(imidazo[1,2-b]pyridazin-3-yl)-2H-indazole-5-carboxamide] | 9.10 | 7.30 |
| COc1cc2nn([C@H]3CC[C@@]4(CC3)CC(=O)N(C)C4)cc2cc1C(=O)Nc1cnn2cccnc12 [Example 87, 6-methoxy-2-((5s,8s)-2-methyl-3-oxo-2-azaspiro[4.5]decan-8-yl)-N-(pyrazolo[1,5-a]pyrimidin-3-yl)-2H-indazole-5-carboxamide] | 9.70 | 7.59 |
| COc1cc2nn([C@@H]3CC[C@H](O)C[C@H]3C)cc2cc1C(=O)Nc1cnc2cccnn12 [Example 88, 2-((1R,2R,4S)-4-hydroxy-2-methylcyclohexyl)-N-(imidazo[1,2-b]pyridazin-3-yl)-6-methoxy-2H-indazole-5-carboxamide] | 8.89 | 7.36 |
| COc1cc2nn([C@H]3CC[C@@H](O)C[C@@H]3C)cc2cc1C(=O)Nc1cnc2cccnn12 [Example 90, 2-((1S,2S,4R)-4-hydroxy-2-methylcyclohexyl)-N-(imidazo[1,2-b]pyridazin-3-yl)-6-methoxy-2H-indazole-5-carboxamide] | 8.28 | 7.00 |
| COc1cc2nn([C@H]3CC[C@H](N(C)C(=O)[C@@H](C)O)CC3)cc2cc1C(=O)Nc1cnc2cccnn12 [Example 95, 2-((1R,4r)-4-((R)-2-Hydroxy-N-methylpropanamido)cyclohexyl)-N-(imidazo[1,2-b]pyridazin-3-yl)-6-methoxy-2H-indazole-5-carboxamide] | 9.70 | 8.15 |
| COc1cc2nn([C@H]3CC[C@H](N(C)C(=O)C4CC4)CC3)cc2cc1C(=O)Nc1cnn2cnccc12 [Example 96, 6-Methoxy-2-((1r,4r)-4-(N-methylcyclopropanecarboxamido)cyclohexyl)-N-(pyrazolo[1,5-c]pyrimidin-3-yl)-2H-indazole-5-carboxamide] | 9.30 | 7.82 |
